Results taken from patent publication US20180344725A1, “QUINOLONE CHALCONE COMPOUNDS AND USES THEREOF” (priority 2015, published 2018).

Experiments:
Assay type in all cases: cell-based
MDA-MB231TaxR = assay: SRB-based cytotoxicity assay, single and combination with paclitaxel; settings: for killing of MDA-MB231TaxR compared with parental MDA-MB231: TaxR selected in 100.0 nM paclitaxel
Procedure: All of the cell lines used were purchased from ATCC and cultured in RPMI-1640 supplemented with 10% fetal bovine serum and antibiotics (100 units penicillin/100 μg/ml streptomycin), unless stated otherwise. 1845B5 and MCF-10A non-cancer breast cell lines were cultured in DME/F12 medium supplemented with 10% fetal bovine serum, antibiotics and growth factors. […] The human small cell lung carcinoma H69 cell line and its multidrug-resistant MRP1-overexpressing isogenic H69AR cell line were purchased from ATCC. […] H69 cells grow as large multi-cell aggregates, making it difficult to accurately count cell numbers. […] The IL-6 dependent bortezomib-resistant ANBL6-BR cell line was further supplemented with 1 ng/ml of IL-6. The MCF10AT1 and MCF10CA1a cell lines are isogenic to the MCF10A cell line, and obtained from Dr. Valerie Weaver at the Center for Bioengineering and Tissue Regeneration, UCSF, CA, USA. MCF10AT1 is a premalignant cell line generated by transforming MCF10A with c-Ha-Ras; and MCF10CA1a was isolated by selecting malignant cells after MCF10AT1 cells were engrafted into mice (Liu & Lin 2004; […] et al. 2009). […] The drug-resistant cells were cultured in the absence of drug for at least one passage before carrying out experiments. All cells were maintained in a humidified incubator at 37° C. […] Cell line authentication was performed using short tandem repeat (STR) profiling. For (anti)proliferation assays, 4,000-5,000 cells/well of the 96-well clustered dish were incubated for 16 hours, as described previously (Hu et al., 2008; Skehan et al., 1990). […] Some wells were treated with 100 μl of 10% trichloroacetic acid (TCA) as a negative control and sham (medium with dimethyl sulfoxide; DMSO) treated cells were used as a positive control. […] TCA was removed and cells were washed with cold tap water, and plate was air-dried, followed by addition of 50 μl of 0.4% SRB staining solution to each well. After 30 minutes incubation, SRB staining solution was removed. Cells were washed with 1% acetic acid solution, and then washed with tap water to remove unbound staining solution, followed by air-drying. 200 μl of 10 mM (pH10.5) trizma base buffer was added to each well to solubilise macromolecules. […] Cell growth (inhibition) was calculated by the following formula: % cells proliferation=[(AT-CT)/(ST-CT)]×100 wherein AT=absorbance of treated cells, CT=absorbance of negative control cells, and ST=absorbance of sham treated cells. […] The combinational index (CI) was calculated as described previously (Chou 2006). […] CI values were determined from four independent experiments.

RPMI-8226 (myeloma) = assay: SRB-based cytotoxicity assay; settings: 72 hours
Procedure: (§1) For (anti)proliferation assays, 4,000-5,000 cells/well of the 96-well clustered dish were incubated for 16 hours, as described previously (Hu et al., 2008; Skehan et al., 1990). After 16 hours, culture medium was replaced with fresh medium containing different dilutions of test compounds dissolved in DMSO. Some wells were treated with 100 μl of 10% trichloroacetic acid (TCA) as a negative control and sham (medium with dimethyl sulfoxide; DMSO) treated cells were used as a positive control. After 72 hours post-incubation, medium was removed and cells were fixed with 10% TCA at 4° C. for 1 hour. TCA was removed and cells were washed with cold tap water, and plate was air-dried, followed by addition of 50 μl of 0.4% SRB staining solution to each well. After 30 minutes incubation, SRB staining solution was removed. Cells were washed with 1% acetic acid solution, and then washed with tap water to remove unbound staining solution, followed by air-drying. 200 μl of 10 mM (pH10.5) trizma base buffer was added to each well to solubilise macromolecules. SRB stained macromolecules were determined at a 540 nm wavelength using an automated plate reader (Synergy H4 Hybrid Multi-Mode Microplate Reader, BioTek, Winooski, Vt.). Cell growth (inhibition) was calculated by the following formula:
(§2) % cells proliferation=[(AT−CT)/(ST−CT)]×100
(§3) wherein AT=absorbance of treated cells, CT=absorbance of negative control cells, and ST=absorbance of sham treated cells. IC50 values were calculated from sigmoidal dose-response curves generated by two independent biological replicates, with quadruplicate in each set by using Graph Pad Prism v.5.04 software. […] The combinational index (CI) was calculated as described previously (Chou 2006). If the CI values were less than, equal to or more than 1, it indicates a synergistic, additive or antagonistic effect respectively (Chou 2006). CI values were determined from four independent experiments.

184B5 = assay: SRB-based cytotoxicity assay; settings: Homo sapiens, 184B5 non-cancer
Procedure: as §1, §2, §3

HeLa = assay: SRB-based cytotoxicity assay; settings: for IC50: HeLa
Procedure: as §1, §2, §3

MCF-10A = assay: SRB-based cytotoxicity assay; settings: for IC50: Homo sapiens; for Cell survival rate: MCF10A, 0.39 μM
Procedure: as §1, §2, §3

HeLa cells = assay: Western blotting (PARP cleavage, apoptosis); settings: by 24-hour post-treatment
Procedure: Exponentially growing cells were collected by centrifugation at 1,100 rpm (Allegra™ X-12 centrifuge, Beckman Coulter) at scheduled time points post-treatment. Cells were washed three times with PBS by centrifugation under the same conditions, followed by cell lysis for 10-15 minutes on ice in 100 μl Lysis buffer (150 mM NaCl, 5 mM EDTA, 1% triton X-100, 10 mM tris pH 7.4, 1 mM PMSF, 5 mM EDTA and 5 mM protease inhibitor). Cell extracts were centrifuged at 11,000 rpm (Allegra™ X-12 centrifuge, Beckman Coulter) for 10 minutes at 4° C. Supernatant was collected and the protein concentration was measured using a BCA assay kit according to the supplier's specifications (Thermo Fisher Scientific, Waltham, Mass.). Cell lysates were then diluted with 2× Iaemmli sample buffer and boiled for 5 minutes at 95-100° C. 30-40 μg protein was loaded on 8% or 10% polyacrylamide gel and resolved by electrophoresis. Proteins were then electronically transferred to a PVDF membrane for 75 minutes at 24 volts, followed by “blocking” with 5% skim milk for 1 hour. Proteins were incubated with primary antibody overnight at 4° C. in 0.1% TBST buffer containing 5% skim milk. The membrane was washed three times with 0.1% TBST buffer and incubated for 1 hour with secondary antibody in TBST buffer containing 5% skim milk. […]

[1] = MCF-10A non-cancer, SRB, Table 2
[2] = MCF-10A, MCF10A non-cancer, 72 hours, Table 4

| SMILES | killing of MDA-MB231TaxR compared with parental MDA-MB231 (MDA-MB231TaxR) | IC50 (RPMI-8226 (myeloma); Homo sapiens) [nM] | IC50 (184B5; SRB, Table 2) [nM] | IC50 (HeLa; Homo sapiens, SRB, Table 2) [nM] | IC50 (MCF-10A; [1]) [nM] | Cell survival rate (MCF-10A; 72 hours) [%] | concentration at which many cells underwent apoptosis (cleavage of PARP) (HeLa cells) [nM] | Cell survival rate (MDA-MB231TaxR; single agent 23.4 nM) | IC50 (RPMI-8226 (myeloma); Table 4) [nM] | IC50 (184B5; 72 hours, Table 4) [nM] | IC50 (HeLa; 72 hours, Table 4) [nM] | IC50 (MCF-10A; [2]) [nM] | other results |
| --- | --- | --- | --- | --- | --- | --- | --- | --- | --- | --- | --- | --- | --- |
| COc1ccccc1C(=O)/C=C/c1cc2ccccc2[nH]c1=O [CTR-17, (E)-3-(3-(2-Methoxyphenyl)-3-oxoprop-1-enyl)quinolin-2(1H)-one] | to the same degree as the parental MDA-MB231 cells | 360 ± 40 | 3490 ± 30 | 330 ± 60 | 3950 ± 140 | 95 |  |  |  |  |  |  |  |
| COc1ccc2[nH]c(=O)c(/C=C/C(=O)c3ccccc3OC)cc2c1 [CTR-20, (E)-6-Methoxy-3-(3-(2-methoxyphenyl)-3-oxoprop-1-enyl) quinolin-2(1H)-one] | to the same degree as the parental MDA-MB231 cells | 230 | 1240 ± 60 | 100 ± 20 | 2370 ± 210 | 75 |  |  |  |  |  |  | Cell survival rate (MDA-MB231TaxR; single agent 0.3 μM): 63.7 ± 2.52; preferentially kill cancer over non-cancer cells (HeLa; HeLa versus MCF-10A): ≤ 24 times |
| COc1ccccc1C(=O)/C=C/c1cc2cccc(OC)c2[nH]c1=O [CTR-21, (E)-8-methoxy-3-(3-(2-methoxyphenyl)-3-oxoprop-1-enyl) quinolin-2(1H)-one] | to the same degree as the parental MDA-MB231 cells |  |  |  |  |  | ≥ 15 | 52.10 ± 3.71 | 5.34 ± 0.89 | 37 ± 2.5 | 11.9 ± 1.4 | 20.3 ± 2.47 |  |
| CCOc1ccccc1C(=O)/C=C/c1cc2ccccc2[nH]c1=O [CTR-32, (E)-3-(3-(2-ethoxyphenyl)-3-oxoprop-1-enyl)quinolin-2(1H)-one] | to the same degree as the parental MDA-MB231 cells |  |  |  |  |  | ≥ 30 | 53.07 ± 6.50 | 6.29 ± 1.43 | 52 ± 7.35 | 12.9 ± 0.35 | 30.1 ± 1.61 |  |
| CC(=O)O[C@H]1C(=O)[C@@]2(C)[C@H]([C@H](OC(=O)c3ccccc3)[C@]3(O)C[C@H](OC(=O)[C@H](O)[C@@H](NC(=O)c4ccccc4)c4ccccc4)C(C)=C1C3(C)C)[C@]1(OC(C)=O)CO[C@@H]1C[C@@H]2O [Paclitaxel, reference compound] |  |  |  |  |  |  |  |  |  |  |  |  | Cell survival rate (MDA-MB231TaxR; single agent 18.75 nM): 95.84 ± 1.86; Cell survival rate (MDA-MB231TaxR; single agent 37.5 nM): 90.28 ± 3.58; Cell survival rate (MDA-MB231TaxR; single agent 75.0 nM): 90.98 ± 4.49; Cell survival rate (MDA-MB231TaxR; single agent 150 nM): 82.41 ± 5.00; Cell survival rate (MDA-MB231TaxR; single agent 300 nM): 57.75 ± 3.78 |
